Among the data in patent publication US9718774B2, “Indole carboxamide derivatives as P2X7 receptor antagonist” (ACTELION PHARMACEUTICALS LTD, priority 2012, dated 2017) are IC50 values, retold here.

In the first experiment the target is T1, human recombinant P2X7 receptor (Homo sapiens, UniProt Q99572).
T1 construct: expressed in transfected cells
T1 sequence (Q99572 1-595): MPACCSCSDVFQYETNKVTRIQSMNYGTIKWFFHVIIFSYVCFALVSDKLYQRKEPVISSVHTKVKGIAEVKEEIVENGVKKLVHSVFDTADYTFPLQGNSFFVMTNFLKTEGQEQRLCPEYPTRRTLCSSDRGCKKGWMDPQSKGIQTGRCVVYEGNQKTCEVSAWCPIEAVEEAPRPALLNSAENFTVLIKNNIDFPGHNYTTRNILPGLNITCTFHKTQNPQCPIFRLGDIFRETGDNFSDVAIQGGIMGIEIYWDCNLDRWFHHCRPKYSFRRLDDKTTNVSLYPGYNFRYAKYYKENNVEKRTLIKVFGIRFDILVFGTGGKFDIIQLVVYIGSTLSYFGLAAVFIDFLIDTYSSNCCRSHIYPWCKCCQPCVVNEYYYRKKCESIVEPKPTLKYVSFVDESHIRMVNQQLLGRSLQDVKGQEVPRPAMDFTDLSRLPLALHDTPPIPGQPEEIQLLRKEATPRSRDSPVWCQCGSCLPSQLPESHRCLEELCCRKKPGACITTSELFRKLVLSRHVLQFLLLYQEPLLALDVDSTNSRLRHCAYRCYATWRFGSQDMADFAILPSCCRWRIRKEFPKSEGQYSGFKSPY
In words: YO-PRO assay: P2X7 receptor antagonistic activity in HEK cells stably expressing P2X7. The conditions noted are these: IC50, antagonistic activity with respect to the P2X7 receptor. It counts as cell-based. An outline of the steps:
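HEK cells stably transfected with human P2X7 (cloned from blood cDNA) were loaded with 0.5 μM YO-PRO-1. They were exposed to antagonist (10 concentrations, top 10 μM, 1/3 steps, duplicate) together with 250 μM ATP for 90 min, and dye uptake was read by FLIPR at ex 485/em 530. IC50 from maximum fluorescence versus concentration.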
As to `Cc1ncc(C(CNC(=O)c2ccc3[nH]ccc3c2Cl)N2CC3CC(C2)O3)cn1` (centres unmarked) [Example 95, 4-Chloro-1H-indole-5-carboxylic acid [2-(2-methyl-pyrimidin-5-yl)-2-(6-oxa-3-aza-bicyclo[3.1.1]hept-3-yl)-ethyl]-amide], the IC50 – broadly, the concentration that inhibits the measured activity by half – stood at 28 nM.

Staying with this experiment, now noted: antagonistic activity with respect to the P2X7 receptor, read-out: IC50.
Consider `Cc1ncc(C(CNC(=O)c2cc(C)c3[nH]ccc3c2Cl)N2CCOCC2)cn1` (single isomer, unassigned) [Example 97, 4-Chloro-7-methyl-1H-indole-5-carboxylic acid [2-(2-methyl-pyrimidin-5-yl)-2-morpholin-4-yl-ethyl]-amide], for which the IC50 was determined as 10 nM.
`Cc1ncc(C(CNC(=O)c2ccc3[nH]ccc3c2C)N2CCOCC2)cn1` (single isomer, unassigned) [Example 105, 4-Methyl-1H-indole-5-carboxylic acid [2-(2-methyl-pyrimidin-5-yl)-2-morpholin-4-yl-ethyl]-amide]: the IC50 was determined as 20 nM.
With `Cc1ncc(C(CNC(=O)c2ccc3[nH]ccc3c2C)N2CCOCC2)cn1` (single isomer, unassigned) [Example 106, 4-Methyl-1H-indole-5-carboxylic acid [2-(2-methyl-pyrimidin-5-yl)-2-morpholin-4-yl-ethyl]-amide], the IC50 was 25 nM.
In the case of `COc1cc(C(=O)NCC(c2cnc(C)nc2)N2CCOCC2)c(Cl)c2cc[nH]c12` (single isomer, unassigned) [Example 114, 4-Chloro-7-methoxy-1H-indole-5-carboxylic acid [2-(2-methyl-pyrimidin-5-yl)-2-morpholin-4-yl-ethyl]-amide], the IC50 was 14 nM.
For the compound `COc1cc(C(=O)NCC(c2cnc(C)nc2)N2CCOCC2)c(Cl)c2cc[nH]c12` (single isomer, unassigned) [Example 115, 4-Chloro-7-methoxy-1H-indole-5-carboxylic acid [2-(2-methyl-pyrimidin-5-yl)-2-morpholin-4-yl-ethyl]-amide], the IC50 was 8.2 nM.
On to `CCc1cc(C(=O)NCC(c2cnc(C)nc2)N2CCOCC2)c(Cl)c2cc[nH]c12` (single isomer, unassigned) [Example 119, 4-Chloro-7-ethyl-1H-indole-5-carboxylic acid [2-(2-methyl-pyrimidin-5-yl)-2-morpholin-4-yl-ethyl]-amide], for which the IC50 was 16 nM.
As to `Cc1ncc(C(CNC(=O)c2ccc3[nH]ccc3c2Cl)N2CC3CC2CO3)cn1` (centres unmarked) [Example 68, 4-Chloro-1H-indole-5-carboxylic acid [2-(2-methyl-pyrimidin-5-yl)-2-(2-oxa-5-aza-bicyclo[2.2.1]hept-5-yl)-ethyl]-amide], the IC50 was 2060 nM.
